# Reference: PubChem BioAssay AID1963435 (Molecular Pharmacology Branch, DTP, NCI, 2024)
# Test system: PANC-1 complex spheroid growth, percent test/control
# Experiment: Anticancer human tumor PANC-1 cell line growth inhibition [Asc];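 also: spheroids exposed to agents for 7 days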;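 as to viability, T/C: percent viability relative to DMSO vehicle wells taken as 100%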
# Settings: for IC50: curve of first compound; for viability, T/C: stronger effect = lower value
# Description: Multicellular complex tumor spheroid response to apoptosis pathway targeting inhibitors Alrizomadlin, Pelcitoclax, and Dasminapant in combination with a variety of drugs and investigational agents in selected tumor cell lines
# The MDM2 inhibitor alrizomadlin, the Bcl-2/Bcl-xL inhibitor pelcitoclax, and the IAPs inhibitor dasminapant were evaluated both individually and in combination with standard of care and investigational anticancer small molecules within a complex spheroid model of solid tumors. . Complex spheroids include a stromal component modeled by human endothelial cells (HUVEC) and fibroblasts modeled by human mesenchymal stem cells (MSCs). The concentration ranges selected for each drug and investigational agent were based upon clinically achievable concentrations if the clinical Cmax of the agent was known.
# Compounds. The drugs and investigational agents: alrizomadlin (APG-115; NSC831270), pelcitoclax (APG-1252; NSC835773), dasminapant (APG-1387;NSC834197), TAK-243 (NSC785004), copanlisib (NSC809693), olaparib (NSC753686), talazoparib (NSC767125), cobimetinib (NSC 768068), eltanexor (KPT-8602, NSC 794443), abemaciclib (NSC 768073), sotorasib (NSC818433), adagrasib (NSC 831453), MRTX-1133 (NSC 836407), Iadademestat (ORY1001, NSC 806812), and RMC-4630 (NSC839698), were obtained from the NCI Developmental Therapeutics Program Chemical Repository. The FDA-approved anticancer drug set is available from the Developmental Therapeutics Program at https://dtp.cancer.gov/organization/dscb/obtaining/available plates.htm. […] The stock solutions were prepared in dimethyl sulfoxide (DMSO, Sigma-Aldrich, St. Louis, MO, cat. D2650) at 800-fold the tested concentration and stored at -70 degrees C prior to their use. All drugs and investigational agents were tested over a range starting from a high concentration at or near the clinical Cmax and decreasing in half-log increments. If the clinical Cmax for an agent had not been determined, the highest concentration tested was 10 microM.
# The patient-derived cancer (PDC) cell lines include five colon adenocarcinomas: 186277-243-T-J2-PDC, 616215-338-R-J1-PDC, 439559-082-T-J2-PDC, 463943-066-T-J2-PDC, and 519858-162-T-J1-PDC; three pancreatic carcinomas: 323965-272-R-J2-PDC, 521955-158-R6-J3-PDC, and 521955-158-R2-J5-PDC; two uterine sarcomas: 327498-152-R-J2-PDC and 993429-296-R-J1-PDC; two rhabdomyosarcomas: 755483-174-R-J1-PDC and 772245-204-R-J1-PDC; two soft tissue sarcomas: 126254-015-R-J1-PDC and 494315-158-R-J1-PDC; two malignant fibrous histiocytomas: 317291-083-R-J1-PDC and 596521-263-R-J1-PDC; two breast carcinomas: 171881-019-R-J1-PDC and 885512-296-R-J2-PDC; and one ovarian carcinoma: 6556581-035-R-J-PDC were obtained from the NCI PDMR, (https://pdmr.cancer.gov). The established cell lines HSSY-2 synovial sarcoma (RRID:CVCL 8719), SYO-1 synovial sarcoma (RRID:CVCL_7146), MPNST malignant peripheral neural sheath tumor were obtained from the Sloan Kettering Institute. The following established cell lines were purchased from the American Type Culture Collection (ATCC, Manassas, VA), Sor the received from the NCI repository:, PANC-1 pancreatic carcinoma (CRL-1469, RRID:CVCL_0480), OVCAR-5 ovarian carcinoma (RRID:CVCL_1628), OVCAR-8 ovarian carcinoma (RRID:CVCL_1629), , MCF-7 breast carcinoma (CRL-12584, RRID:CVCL_0031), MDA-MB-231 breast carcinoma (CRL-12532, RRID:CVCL_0062), NCI-H1876 small cell lung carcinoma (CRL-5902, RRID:CVCL_1503), NCI-H510A small cell lung carcinoma (HTB-184, RRID:CVCL_1565), NCI-H1417 (CRL-5869, RRID:CVCL_1469), and NCI-H196 small cell lung carcinoma (CRL-5823, RRID:CVCL_1509). Dr. Peter Houghton (Greehey Children's Cancer Research Institute, University of Texas Health Science Center, San Antonio, TX) provided Rh-18 rhabdomyosarcoma (RRID:CVCL_1659). Pooled donor human umbilical vein endothelial cells (HUVEC, Lonza, cat. CC-2519) and human mesenchymal stem cells (hMSC, Lonza, cat. PT-2501) were purchased from Lonza (Walkersville, MD).
# Cell Culture. […]
structure (smiles),measurement,setting,value
Cn1ncnc1[C@H]1c2n[nH]c(=O)c3cc(F)cc(c23)N[C@@H]1c1ccc(F)cc1 + CCN1C(C(=O)NC23CCC(C(=O)O)(CC2)CC3)C(c2cccc(Cl)c2F)C2(C(=O)Nc3cc(Cl)ccc32)C12CCCCC2,IC50,second compound 0.00949 µM,> 100 nM
same,IC50,second compound 0.03 µM,> 100 nM
same,IC50,second compound 0.0949 µM,> 100 nM
same,IC50,second compound 0.3 µM,> 100 nM
same,IC50,second compound 0.949 µM,> 100 nM
same,IC50,second compound 3 µM,> 100 nM
same,"viability, T/C","second compound 0.00949 µM, first compound 0.000316 µM",101%
same,"viability, T/C","second compound 0.00949 µM, first compound 0.001 µM",89.6%
same,"viability, T/C","second compound 0.00949 µM, first compound 0.00316 µM",97.4%
same,"viability, T/C","second compound 0.00949 µM, first compound 0.01 µM",96.7%
same,"viability, T/C","second compound 0.00949 µM, first compound 0.0316 µM",111%
same,"viability, T/C","second compound 0.00949 µM, first compound 0.1 µM",113%
same,"viability, T/C","second compound 0.03 µM, first compound 0.000316 µM",107%
same,"viability, T/C","second compound 0.03 µM, first compound 0.001 µM",89.5%
same,"viability, T/C","second compound 0.03 µM, first compound 0.00316 µM",98.4%
same,"viability, T/C","second compound 0.03 µM, first compound 0.01 µM",98.9%
same,"viability, T/C","second compound 0.03 µM, first compound 0.0316 µM",109%
same,"viability, T/C","second compound 0.03 µM, first compound 0.1 µM",101%
same,"viability, T/C","second compound 0.0949 µM, first compound 0.000316 µM",93.4%
same,"viability, T/C","second compound 0.0949 µM, first compound 0.001 µM",98.1%
same,"viability, T/C","second compound 0.0949 µM, first compound 0.00316 µM",103%
same,"viability, T/C","second compound 0.0949 µM, first compound 0.01 µM",94.2%
same,"viability, T/C","second compound 0.0949 µM, first compound 0.0316 µM",108%
same,"viability, T/C","second compound 0.0949 µM, first compound 0.1 µM",102%
same,"viability, T/C","second compound 0.3 µM, first compound 0.000316 µM",98.8%
same,"viability, T/C","second compound 0.3 µM, first compound 0.001 µM",96.2%
same,"viability, T/C","second compound 0.3 µM, first compound 0.00316 µM",109%
same,"viability, T/C","second compound 0.3 µM, first compound 0.01 µM",101%
same,"viability, T/C","second compound 0.3 µM, first compound 0.0316 µM",110%
same,"viability, T/C","second compound 0.3 µM, first compound 0.1 µM",106%
same,"viability, T/C","second compound 0.949 µM, first compound 0.000316 µM",111%
same,"viability, T/C","second compound 0.949 µM, first compound 0.001 µM",117%
same,"viability, T/C","second compound 0.949 µM, first compound 0.00316 µM",106%
same,"viability, T/C","second compound 0.949 µM, first compound 0.01 µM",107%
same,"viability, T/C","second compound 0.949 µM, first compound 0.0316 µM",105%
same,"viability, T/C","second compound 0.949 µM, first compound 0.1 µM",114%
same,"viability, T/C","second compound 3 µM, first compound 0.000316 µM",109%
same,"viability, T/C","second compound 3 µM, first compound 0.001 µM",123%
same,"viability, T/C","second compound 3 µM, first compound 0.00316 µM",124%
same,"viability, T/C","second compound 3 µM, first compound 0.01 µM",116%
same,"viability, T/C","second compound 3 µM, first compound 0.0316 µM",125%
same,"viability, T/C","second compound 3 µM, first compound 0.1 µM",106%
